Among the data in patent US20130259830A1, “CRTH2 MODULATORS” (Ironwood Pharmaceuticals, Inc., priority 2010, published 2013) are IC50 values, retold here.

Molecules are shown by their SMILES. Bounds are passed on as bounds.

Experiment [1] addresses T1, CRTH2 (Homo sapiens, UniProt Q9Y5Y4).
T1 construct: endogenous in cells; host or cells: eosinophils in human whole blood
T1 sequence (Q9Y5Y4 1-395): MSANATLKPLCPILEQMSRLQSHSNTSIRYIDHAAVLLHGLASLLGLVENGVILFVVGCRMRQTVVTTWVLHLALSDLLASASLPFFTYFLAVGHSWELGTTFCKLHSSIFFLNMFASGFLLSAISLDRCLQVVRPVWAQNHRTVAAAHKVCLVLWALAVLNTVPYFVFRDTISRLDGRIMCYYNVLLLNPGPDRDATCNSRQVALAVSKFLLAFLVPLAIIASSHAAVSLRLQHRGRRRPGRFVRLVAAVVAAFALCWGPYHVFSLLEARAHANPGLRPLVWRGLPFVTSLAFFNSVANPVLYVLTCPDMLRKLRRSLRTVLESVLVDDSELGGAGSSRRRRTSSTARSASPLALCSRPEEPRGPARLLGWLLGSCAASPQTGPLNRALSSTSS
Description: Human whole blood CD11b antagonist assay (CD11b expression in eosinophils challenged with 15-R-methyl-PGD2). In kind it is cell-based. Particulars: 37° C. 10 minutes preincubation, agonist 15R-Methyl-PGD2 10 nM, eosinophils gated by flow cytometry. The procedure:
Human Whole Blood […] Antagonist Assay (Modified from Nicholson, et al. Pulmonary Pharmacology and Therapeutics: 20 (2007); 52-59).
The potential CRTH2 antagonist activity of certain compounds was tested in human whole blood using an assay that tests the ability of the compounds to block the CD11b expression in eosinophils by 15-R-methyl-PGD2. A CRTH2 antagonist should block CD11b expression by subsequently added 15-Methyl-PGD2. Human whole blood (200 μL) was incubated at 37° C. for 10 minutes in the presence of various concentrations of test compounds before being challenged with the agonist 1-5R-Methyl-PGD2 (10 nM). Reactions were terminated by the addition of ice-cold PBS+0.5% BSA+2 mM EDTA (1 mL) and centrifugation (300×g for 5 minutes at 4° C.) Cells were then incubated at 4° C. for 10 min in the presence of human IgG. Cells were then incubated for 30-45 min with a mixture of PE-Cy5-labeled mouse anti-human CD16 (10 ul; BD Biosciences) and FITC-labeled mouse anti-human CD11b (10 μL; Beckman Coulter.) After rinsing (1 mL ice-cold PBS+0.5% BSA+2 mM EDTA), red blood cells were lysed by the addition of 1 mL ice-cold H2O to the cell pellet for 30 sec-1 min immediately followed by the addition of 3.5% NaCl (300 μL.) Cells were then rinsed (2×−1 ml ice cold PBS+0.5% BSA+2m MEDTA) and fixed in PBS containing 1% formaldehyde. The distribution of fluorescence intensities was measured by flow cytometry. Eosinophils were gated out on the basis of their granularity (high side scatter) and absence of CD-16. CD11b was then measured on this eosinophil population on the basis of fluorescence due to FITC.
(Flow cytometry measures light scatter and fluorescence of single cells or particles in a stream.)

Experiment [2] deals with T1, CRTH2. Description: DPBS CD11b antagonist assay (CD11b expression in eosinophils challenged with 15R-Methyl-PGD2). Type of experiment: cell-based. As to conditions: polymorphonuclear cells in PBS with CaCl2/MgCl2; agonist 15R-Methyl-PGD2 10 nM; eosinophils gated by flow cytometry. The protocol:
DPBS CD111b Antagonist Assay.
The potential CRTH2 antagonist, activity of certain compounds was tested using a CD11b expression assay using essentially the method described by Monneret et al. (J Pharmacol Exp Ther 304:349-55, 2003). Briefly, polymorphonuclear cells (0.5 ml; 10^6/ml cells) in PBS containing 0.9 mM CaCl2 and 0.5 mM MgCl2) were preincubated with various concentrations of test compounds at room temperature for 10 minutes before they were challenged with the agonist 15R-Methyl-PGD2 (10 nM). The incubations were terminated by the addition of ice-cold FACSFlow (BD Biosciences; Cat#342003) and centrifugation (400 g for 5 minutes at 4° C.). The cells were then incubated for 30 minutes at 4° C. with a mixture of PE-labeled mouse anti-human VLA-4 (5 μl; BD Biosciences) and FITC-labeled mouse anti-human CD11b (10 μl; Beckman Coulter). The cells were then incubated with Optilyse C (0.25 ml; Beckman Coulter) for 15 minutes, centrifuged, and then fixed in PBS (0.4 ml; calcium and magnesium free) containing 1% formaldehyde. The distribution of fluorescence intensities among 60,000 cells was measured by flow cytometry. Eosinophils were gated out on the basis of their granularity (high side scatter) and labeling with VLA-4 (PE fluorescence). CD11b was then measured in the eosinophil region on the basis of fluorescence due to FITC. All data were corrected for the value obtained for the corresponding isotope control antibody.

For the compound `CCOC(=O)Cn1c(C)c(Cc2cccnc2S(=O)(=O)c2ccc(C)cc2)c2c1CC(C)(C)CC2=O` [Compound I-16, Ethyl 2-(2,6,6-trimethyl-4-oxo-3-((2-tosylpyridin-3-yl)methyl)-4,5,6,7-tetrahydro-1H-indol-1-yl)acetate], the IC50 – broadly, the concentration that gives 50% inhibition – lay within 500 to 3000 nM on CRTH2 [1] and 20 to 100 nM at CRTH2 [2].
With `Cc1c(Cc2ccccc2NS(=O)(=O)c2ccc(O)cc2)c2c(n1CC(=O)O)CC(C)(C)CC2=O` [Compound I-48, 2-(3-(2-(4-Hydroxyphenylsulfonamido)benzyl)-2,6,6-trimethyl-4-oxo-4,5,6,7-tetrahydro-1H-indol-1-yl)acetic acid], the IC50 on CRTH2 [1] was 1 to 5 nM; at CRTH2 [2], under 1 nM.
For `Cc1c(Cc2cc(OCC(F)(F)F)ccc2NS(=O)(=O)c2ccccc2)c2c(n1CC(=O)O)CC(C)(C)CC2=O` [Compound I-36, 2-(2,6,6-Trimethyl-4-oxo-3-(2-(phenylsulfonamido)-5-(2,2,2-trifluoroethoxy)benzyl)-4,5,6,7-tetrahydro-1H-indol-1-yl)acetic acid], in that order: 20 to 100 nM and 1 to 5 nM.
For `Cc1c(Cc2ccccc2S(=O)(=O)N2CCCC2)c2c(n1CC(=O)O)CCNC2=O` [Compound I-39, 2-(2-Methyl-4-oxo-3-(2-(pyrrolidin-1-ylsulfonyl)benzyl)-4,5,6,7-tetrahydro-1H-pyrrolo[3,2-c]pyridin-1-yl)acetic acid], in that order: 5 to 20 nM and under 1 nM.
For `COc1ccc(S(=O)(=O)c2ncccc2Cc2c3c(n(CC(=O)O)c2C)CC(C)(C)CC3=O)cc1F` [Compound I-21, 2-(3-((2-(3-Fluoro-4-methoxyphenylsulfonyl)pyridin-3-yl)methyl)-2,6,6-trimethyl-4-oxo-4,5,6,7-tetrahydro-1H-indol-1-yl)acetic acid], in that order: 20 to 100 nM and under 1 nM.
As to `Cc1c(Cc2ccccc2NS(=O)(=O)c2ccc(C(F)(F)F)cc2)c2c(n1CC(=O)O)CC(C)(C)CC2=O` [Compound I-25, 2-(2,6,6-Trimethyl-4-oxo-3-(2-(4-(trifluoromethyl)phenylsulfonamido)benzyl)-4,5,6,7-tetrahydro-1H-indol-1-yl)acetic acid], the figures for the IC50 on CRTH2 [1] and at CRTH2 [2] were 20 to 100 nM and under 1 nM, respectively.
For `Cc1c(Cc2cccnc2S(=O)(=O)C2CC2)c2c(n1CC(=O)O)CC(C)(C)CC2=O` [Compound I-4, 2-(3-((2-(cyclopropylsulfonyl)pyridin-3-yl)methyl)-2,6,6-trimethyl-4-oxo-4,5,6,7-tetrahydro-1H-indol-1-yl)acetic acid], the IC50 at CRTH2 [1] and at CRTH2 [2] was 100 to 500 nM each time.
Take `Cc1ccc(S(=O)(=O)c2ncccc2Cc2c3c(n(CC(=O)O)c2C)CC(C)(C)CC3=O)cc1` [Compound I-20, 2-(2,6,6-Trimethyl-4-oxo-3-((2-tosylpyridin-3-yl)methyl)-4,5,6,7-tetrahydro-1H-indol-1-yl)acetic acid]: the IC50 at CRTH2 [1] is 5 to 20 nM; on CRTH2 [2], under 1 nM.
For `CCOC(=O)Cn1c(C)c(Cc2cccnc2S(=O)(=O)c2ccc(F)cc2)c2c1CC(C)(C)CC2=O` [Compound I-8, ethyl 2-(3-((2-(4-fluorophenylsulfonyl)pyridin-3-yl)methyl)-2,6,6-trimethyl-4-oxo-4,5,6,7-tetrahydro-1H-indol-1-yl)acetate], in that order: 500 to 3000 nM and 20 to 100 nM.
In the same order, the values of `Cc1c(Sc2ccccc2NS(=O)(=O)c2ccccc2)c2c(n1CC(=O)O)CC(C)(C)CC2` [Compound I-52, 2-(2,6,6-trimethyl-3-(2-(phenylsulfonamido)phenylthio)-4,5,6,7-tetrahydro-1H-indol-1-yl)acetic acid] are 5 to 20 nM and under 1 nM.
For `Cc1c(Cc2cccnc2S(=O)(=O)c2ccc(Cl)cc2)c2c(n1CC(=O)O)CC(C)(C)CC2=O` [Compound I-15, 2-(3-((2-(4-Chlorophenylsulfonyl)pyridin-3-yl)methyl)-2,6,6-trimethyl-4-oxo-4,5,6,7-tetrahydro-1H-indol-1-yl)acetic acid], the IC50 is 5 to 20 nM on CRTH2 [1] and under 1 nM at CRTH2 [2].
For `Cc1c(Cc2ccccc2NS(=O)(=O)c2ccc(OCc3ccccc3)cc2)c2c(n1CC(=O)O)CC(C)(C)CC2=O` [Compound I-46, 2-(3-(2-(4-(Benzyloxy)phenylsulfonamido)benzyl)-2,6,6-trimethyl-4-oxo-4,5,6,7-tetrahydro-1H-indol-1-yl)acetic acid], in that order: 5 to 20 nM and under 1 nM.
For `Cc1c(Cc2ccccc2NS(=O)(=O)N2CCCC2)c2c(n1CC(=O)O)CC(C)(C)CC2=O` [Compound I-47], in that order: 20 to 100 nM and 5 to 20 nM.
For the compound `Cc1ccc(S(=O)(=O)N(C)c2cccc(Cc3c4c(n(CC(=O)O)c3C)CC(C)(C)CC4=O)c2)cc1` [Compound I-45, 2-(3-(3-(N,4-Dimethylphenylsulfonamido)benzyl)-2,6,6-trimethyl-4-oxo-4,5,6,7-tetrahydro-1H-indol-1-yl)acetic acid], the IC50 is over 3000 nM on CRTH2 [1] and 100 to 500 nM on CRTH2 [2].
In the same order, the values of `CCOC(=O)Cn1c(C)c(Cc2cccnc2S(=O)(=O)c2ccccc2)c2c1CC(C)(C)CC2=O` [Compound I-9, ethyl 2-(2,6,6-trimethyl-4-oxo-3-((2-(phenylsulfonyl)pyridin-3-yl)methyl)-4,5,6,7-tetrahydro-1H-indol-1-yl)acetate] are 500 to 3000 nM and 100 to 500 nM.
As to `Cc1c(Cc2ccccc2S(=O)(=O)N2CCOCC2)c2c(n1CC(=O)O)CCNC2=O` [Compound I-50, 2-(2-Methyl-3-(2-(morpholinosulfonyl)benzyl)-4-oxo-4,5,6,7-tetrahydro-1H-pyrrolo[3,2-c]pyridin-1-yl)acetic acid], the IC50 on CRTH2 [1] was 1 to 5 nM; at CRTH2 [2] it was under 1 nM.
In the same order, the values of `CCOC(=O)Cn1c(C)c(Cc2cccnc2S(=O)(=O)c2ccc(F)cc2F)c2c1CC(C)(C)CC2=O` [Compound I-18, Ethyl 2-(3-((2-(2,4-difluorophenylsulfonyl)pyridin-3-yl)methyl)-2,6,6-trimethyl-4-oxo-4,5,6,7-tetrahydro-1H-indol-1-yl)acetate] are 500 to 3000 nM and 100 to 500 nM.
In the same order, the values of `Cc1c(Cc2cccnc2S(=O)(=O)c2ccccc2)c2c(n1CC(=O)O)CC(C)(C)CC2=O` [Compound I-3, 2-(2,6,6-trimethyl-4-oxo-3-((2-(phenylsulfonyl)pyridin-3-yl)methyl)-4,5,6,7-tetrahydro-1H-indol-1-yl)acetic acid] are 5 to 20 nM and under 1 nM.
In the same order, the values of `Cc1c(Cc2ccccc2NS(=O)(=O)c2ccc(F)cc2F)c2c(n1CC(=O)O)CC(C)(C)CC2=O` [Compound I-22, 2-(3-(2-(2,4-Difluorophenylsulfonamido)benzyl)-2,6,6-trimethyl-4-oxo-4,5,6,7-tetrahydro-1H-indol-1-yl)acetic acid] are 20 to 100 nM and under 1 nM.
For the compound `CCOC(=O)Cn1c(C)c(Cc2cccnc2S(=O)(=O)c2ccc(OC)cc2)c2c1CC(C)(C)CC2=O` [Compound I-6, ethyl 2-(3-((2-(4-methoxyphenylsulfonyl)pyridin-3-yl)methyl)-2,6,6-trimethyl-4-oxo-4,5,6,7-tetrahydro-1H-indol-1-yl)acetate], the IC50 on CRTH2 [1] was in the range of 500 to 3000 nM; on CRTH2 [2], 5 to 20 nM.
